Consider six compounds from patent publication US20030181376A1, “Control of crop pests & animal parasites through direct neuronal uptake” (priority 2000, published 2003).

Format in all cases: in vivo
The test system of one test is Heterodera glycines. In words: Behavioural bioassay: orientation of H. glycines juveniles to an attractant disc (root exudate) after pre-incubation. The conditions noted are these: for EC50: read-out: concentration giving 50% reduction in attraction of H. glycines to an attractant. On the procedure: This assay was modified from that used by Grundler et al (Parasitology 103, 149-155; 1991). Soybean plants were grown in pots containing perlite in a tropical glasshouse until the root system was well established. Plants were carefully washed free of the perlite in running water and then several plants were placed in 200 cm3 dH2O in a conical flask which was covered in foil to keep light off the roots and then incubated in a Sanyo plant growth cabinet (16 hr light 24° C., 8 hr dark 20° C.) for 48hrs. The root exudate was collected and filter sterilised through 0.45 μm syringe filter.
Agarose discs covered in either dH2O or root exudate were made as follows. Agarose (3 ml, 1.5% solution made in dH2O) was poured into 6 cm petri dishes and allowed to surface dry. One ml of root exudate or dH2O was pipetted onto the plates, the surface covered by swirling and then left to completely evaporate. A cork borer was used to cut out 6 mm discs from the plate.
The oxime carbamate nematicide Aldicarb was obtained by putting 1 g Temik (10G, Rhône-Poulenc), in 10 ml chloroform to dissociate the oxime carbamate from its inert carrier. After 1 hour particulate material was removed by centrifugation. 100, 10 or 1 μl aliquots of the chloroform/aldicarb solution were pipetted into 1.5 ml microtubes and left to evaporate in a fume hood. This leaves 1, 0.1 and 0.01 mg aldicarb respectively in each tube. Addition of 1 ml dH2O to these tubes provides solutions of […] respectively.
Aliquots of juveniles of H. glycines were incubated for 16 hours in a range of concentrations of aldicarb, or in peptides generated that recognise the same acetylcholinesterase (AChE) target as aldicarb (see example IV). The effect of different concentrations of aldicarb or peptides on chemoreception was measured. Control worms were incubated in either water or PBS for the peptide experiments.
Treated nematode juveniles (approximately 300) in small volumes (typically 20 μl) dH2O were placed in the centre of 3.5 cm diameter petri dishes containing 1.5 ml 1.5% agarose. After evaporation of the water the worms were left for 1 hour to randomly distribute over the plate. A root exudate and a water agarose test disc were placed onto the plate equally spaced (5 mm) from the centre. The plates were left for 1 hour at room temperature in the dark. The experiments were carried out in replicates of 8-10 per concentration of aldicarb or peptide assayed. Controls in which nematodes were not treated with any chemical or peptide mimetic were also used for each experimental day to obtain a 100% rate of attraction. This allowed measurements of the extent of chemoattraction mediated by a test compound on any day.
The number of worms under each disc was counted using a dissecting microscope. In control experiments typically 2-4 times as many worms were counted under the root exudate disc as were under the water control disc. The numbers of responders minus the number under the control disc was used to calculate a response. With ˜300 animals on the plate the difference was around 40-80. The difference between the numbers under the attractant and the control discs was used to define the maximum response on that day of experiments.
Various concentrations of these compounds were tested with a modified bioassay. The data sets were analysed using probit analysis within a standard statistical package (SPSS) installed on a personal computer. […] Even higher concentrations of aldicarb and both AChE binding peptides were needed to inhibit movement than required to disrupt chemoreception.
Freshly hatched H. glycines were incubated for 16 hours at room temperature in various concentrations of Levamisole. They were tested using the bioassay in example 3.

The next test relates to Globodera pallida. In words: Behavioural bioassay: orientation of G. pallida to an attractant disc (50 mM ZnCl2) after pre-incubation. The settings on record: 16 h pre-treatment at 1.242×10^−8 M.
Test [1] concerns Heterodera glycines and Globodera pallida. Kind of test: Behavioural bioassay, pooled data of H. glycines and G. pallida after pre-incubation in levamisole mimetic peptide. The settings on record: 16 h pre-treatment at 1×10^−6 M; data of two species pooled; values>1 indicate a chemoreceptive response.
Method: The number of worms under each disc was counted using a dissecting microscope. […] The numbers of responders minus the number under the control disc was used to calculate a response. […] The difference between the numbers under the attractant and the control discs was used to define the maximum response on that day of experiments.
50 mM CaCl2 was used as an attractant with the agarose discs. Those assays were carried out at 27° C. […] The peptide was also tested against the potato cyst nematode Globodera pallida using the same methods as described for H. glycines. G. pallida was incubated for 16 h in a solution containing the constrained peptide at 1.242×10^−8 M at room temperature. […]
[2] abbreviates: incubation for 16 hours, probit analysis.

Where two headings read alike, the source gives them in different places.

With `c1ccc([C@H]2CN3CCSC3=N2)cc1` [Levamisole], the signs of paralysis result in the test on Heterodera glycines (16 hours at room temperature in various concentrations) is reported as “did not show any signs of paralysis”. For the same compound, the inhibition of chemoreception entry with Heterodera glycines (16 hours at room temperature in various low concentrations, FIG. 5) is listed as “inhibit chemoreception in a dose-dependent manner”.
Take `CNC(=O)O/N=C/C(C)(C)SC` [aldicarb, Aldicarb]: the “disruption of chemosensory attraction relative to paralysis” value in the test with Heterodera glycines (H. glycines, 16 hours incubation) is listed as “disrupt chemosensory attraction completely at concentrations lower than those which cause paralysis”. Besides, the EC50 in the test on Heterodera glycines (Heterodera glycines, 16 h) turned out to be 0.0011 ± 0.00306 nM.
CHNSHIRWC [control peptide]: in the test on Heterodera glycines (incubation at 2 μM), the loss of chemoreception entry is reported as “no loss of chemoreception”.
With CSINWRHHC [constrained 7 mer peptide], in the test on Globodera pallida (room temperature, bioassay at 20° C., 50 mM ZnCl2, values>1 indicate a chemoreceptive response), the “mean value ratio of nematodes under the disc with the attractant rather than without it” value stood at 0.77±0.08. Moreover, in the test with Globodera pallida (3 hours after start of the bioassay), the “ratio of nematodes under attractant disc versus control disc, 3 hours after the start of the bioassay” value came to 0.78±0.06. Also, the EC50 in the test on Heterodera glycines (setting [2]) amounted to 2.16 nM.
On to CTTMHPRLC, for which the “mean value ratio of nematodes under the disc with the attractant rather than without it” value in test [1] came to 1.03±0.11. Besides, the “ratio of nematodes under attractant disc versus control disc, 3 hours after the start of the bioassay” value in the test on Heterodera glycines (H. glycines, 16 h pre-treatment at 1×10^−6 M, 3 hours after start of the bioassay) worked out at 1.24±0.11.
As to SVSVGMKPSPRP [linear 12 mer peptide], in the test on Heterodera glycines (setting [2]), the EC50 turned out to be 3680 nM.
